Assay results as given in US20230348453A1, “HALOGENATED-HETEROARYL AND OTHER HETEROCYCLIC KINASE INHIBITORS, AND USES THEREOF” (iOmx Therapeutics AG, priority 2020, published 2023).

Assays:
HCK = HCK (Homo sapiens (Human), UniProt P08631); assay type: biochemical; details: Kinase Profiler
MDR1 (P-gp) = MDR1 (P-gp) (Homo sapiens (Human), UniProt P08183); assay: in vitro; details: dog, MDCK-MDR1, MDCK-MDR1 cells
in vitro [1] = details: dog, MDCK, MDCK-wild type cells
KU812 tumours = details: 50 mg/kg/day for 5 days; cited from earlier work
K562 CML cells = details: 10 mg/kg/day; cited from earlier work
hERG potassium channel = hERG potassium channel (Homo sapiens (Human), UniProt Q12809); details: cited from earlier work
[2] = Screening PK in mice after 30 mg/kg po; details: mouse, in vivo
[3] = cited from earlier work
[4] = Full pharmacokinetic study in mice; details: mouse, in vivo
[5] = human, in vivo; cited from earlier work
RET [6] = target: T1, RET (Homo sapiens (Human), UniProt P07949); assay: biochemical; details: read-out: RET residual activity (%) at 1 μM, 1 μM
RET [7] = target: T1, RET
[8] = microsomes
SIK3 = SIK3 (Homo sapiens (Human), UniProt Q9Y2K2); details: read-out: SIK3 IC50
in vitro [9] = details: human, microsomes
[10] = microsomes; remark: listed apart in the source
[11] = Murine plasma protein binding; details: Table 5A
in vitro [12] = details: mouse, microsomes
[13] = Human plasma-protein binding; details: Table 5A

T1 sequence (P07949 29-1114 limits assumed): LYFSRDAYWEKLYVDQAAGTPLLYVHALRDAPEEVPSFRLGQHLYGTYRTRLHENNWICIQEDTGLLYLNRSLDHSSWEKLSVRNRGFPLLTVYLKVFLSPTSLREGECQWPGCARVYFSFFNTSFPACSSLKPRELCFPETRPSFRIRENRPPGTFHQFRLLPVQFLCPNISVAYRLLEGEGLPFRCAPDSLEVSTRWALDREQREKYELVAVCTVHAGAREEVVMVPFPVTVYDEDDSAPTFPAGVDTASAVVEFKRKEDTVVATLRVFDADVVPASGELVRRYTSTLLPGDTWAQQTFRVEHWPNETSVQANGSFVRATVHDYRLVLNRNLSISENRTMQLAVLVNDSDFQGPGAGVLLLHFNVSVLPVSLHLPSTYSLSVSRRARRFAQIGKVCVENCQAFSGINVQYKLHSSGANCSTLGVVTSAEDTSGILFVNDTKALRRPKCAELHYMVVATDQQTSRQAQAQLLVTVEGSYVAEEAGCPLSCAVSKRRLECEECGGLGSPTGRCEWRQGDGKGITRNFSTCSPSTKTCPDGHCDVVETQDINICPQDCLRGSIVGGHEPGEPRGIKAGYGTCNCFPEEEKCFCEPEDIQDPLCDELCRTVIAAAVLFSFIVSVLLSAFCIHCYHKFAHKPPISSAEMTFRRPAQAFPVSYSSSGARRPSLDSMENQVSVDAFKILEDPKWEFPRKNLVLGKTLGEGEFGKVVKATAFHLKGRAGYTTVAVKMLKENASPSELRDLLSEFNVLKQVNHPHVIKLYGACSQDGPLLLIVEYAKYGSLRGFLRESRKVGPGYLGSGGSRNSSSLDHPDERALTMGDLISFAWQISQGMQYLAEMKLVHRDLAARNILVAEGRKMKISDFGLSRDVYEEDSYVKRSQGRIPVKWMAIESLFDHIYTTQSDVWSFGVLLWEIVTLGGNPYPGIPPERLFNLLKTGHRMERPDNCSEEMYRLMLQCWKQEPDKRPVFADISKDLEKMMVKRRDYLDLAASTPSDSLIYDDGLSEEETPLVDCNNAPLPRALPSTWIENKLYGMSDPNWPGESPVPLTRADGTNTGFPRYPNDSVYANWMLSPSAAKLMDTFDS

With Cc1nc(Nc2ncc(C(=O)Nc3c(C)cccc3Cl)s2)cc(N2CCN(CCO)CC2)n1 [Compound A8, N-(2-chloro-6-methylphenyl)-2-((6-(4-(2-hydroxyethyl)piperazin-1-yl)-2-methylpyrimidin-4-yl)amino)thiazole-5-carboxamide] the HCK residual activity (HCK) was “less than 1%”, the Papp (MDR1 (P-gp)) was 105 ×10⁻⁶ cm/s and the Papp (MDR1 (P-gp); Mean Papp A > B (10^−6 cm/s)) was 2.4 ×10⁻⁶ cm/s. For the same compound, the Papp (in vitro [1]; Mean Papp A > B (10^−6 cm/s)) was 21 ×10⁻⁶ cm/s, the Papp (in vitro [1]; Mean Papp B > B (10^−6 cm/s)) was 49 ×10⁻⁶ cm/s and the “outcome in mice bearing large KU812 tumours” value (KU812 tumours) was “curative”. For the same compound, the “survival of mice inoculated intracranially with K562 CML cells” value (K562 CML cells) was “increased survival”, the “inhibition of hERG currents at 3 uM” value (hERG potassium channel) was “about 6%” and the “inhibition of hERG currents at 10 uM” value (hERG potassium channel) was ~36%. The “Cmax after 2 h” value [2] was 550 ng/mL, the “severe gastrointestinal haemorrhage, including fatalities” value ([3]; all clinical studies) was 4 % of patients and the “cardiomyopathy, heart failure congestive, diastolic dysfunction, fatal myocardial infarction, and left ventricular dysfunction” value ([3]; human, in vivo) was 1.6 % of patients. The “Cmax (ng/ml), Total” value [4] was 550 ng/mL, the “patients with cardiomyopathy, heart failure congestive, diastolic dysfunction, fatal myocardial infarction, and left ventricular dysfunction” value [5] was 1.6% and the remaining activity at 1 µM (RET [6]) was < 40%. The “RET residual activity (%) at 1 μM” value (RET [7]) was 39%.

In the case of Cc1nc(Nc2ncc(C(=O)Nc3c(C)nn(C)c3C)s2)cc(N2CCN(CCO)CC2)n1 [Compound C8, 2-((6-(4-(2-hydroxyethyl)piperazin-1-yl)-2-methylpyrimidin-4-yl)amino)-N-(1,3,5-trimethyl-1H-pyrazol-4-yl)thiazole-5-carboxamide], the Human liver microsomal stability, Intrinsic clearance [8] is reported as < 14 µL/min/mg, the IC50 (SIK3) is reported as 9.73 µM and the half-life (in vitro [9]) is reported as > 1.67 h. For the same compound, the Mouse liver microsomal stability, Intrinsic clearance (L/min/mg) [10] was < 14 µL/min/mg, the “Murine plasma protein binding, Percentage unbound (%)” value [11] was 62% and the half-life (in vitro [12]) was > 1.67 h. The “Kinetic solubility” value was 189 µM and the “Human plasma-protein binding, Percentage unbound (%)” value [13] was 5%.
